Experimental findings from US20140163099A1, “ANTIMICROBIAL COMPOSITION” (TAKASAGO INTERNATIONAL CORPORATION, priority 2011, published 2014) are described below.

SMILES strings stand for the structures. In brackets after ≈: the same amount, converted by molar mass.

What all share (format): cell-based
Test [1] concerns Prevotella nigrescens (JCM6322). Kind of test: Growth inhibition activity (MIC, agar) against anaerobic bacteria. As to conditions: Prevotella nigrescens, JCM6322, 72 h, strain JCM6322; Trypticase Soy Broth agar, 37 degrees C. for 3 days; read-out: MIC (Minimum Inhibitory Concentration). As to the method:
(§1) In the present invention, the growth inhibition activity, which is an indicator of the antimicrobial activity, is evaluated by determining the Minimum Inhibitory Concentration (MIC) with an agar or liquid medium.
(§2) In the test for growth inhibition activity, the following strains were used: • Acne bacteria: Propionibacterium acnes (JCM6473) and (ATCC6919) • Abscess bacteria: Bacteroides fragilis (GAI5560) • Cavity-causing bacteria: Streptococcus mutans (JCM5175), Actinomyces naeslundii (JCM8350) and Actinomyces viscosus (JCM8352) • Periodontal pathogen: Fusobacterium nucleatum (JCM6328), Porphyromonas gingivalis (JCM8525), Prevotella nigrescens (JCM6322)
(§3) The test strains were cultured in a GAM medium (Nissui Pharmaceutical Co., LTD), a Schaedler Broth (BBL) or a Trypticase Soy Broth (BBL) liquid medium, and then the grown bacteria were diluted in saline to prepare turbidity 0.5 McFarland of the bacteria fluids for inoculation. The bacteria were cultured at 37 degrees C. for 3 days under an anaerobic condition by using AnaeroPack® from MGC.
(§4) Furthermore, in order to examine the growth inhibition activities against the bacteria by the above cooling agent, the concentration of the cooling agents: (3S)-CA20, (3R)-CA20, CA1, CA5, CA15, CA55 or CA MGH was diluted with ethanol to the required level of concentrations for the determining the Minimum Inhibitory Concentration to produce the sample liquids.
(§5) Next, 100 μL of each sample liquid was added to 10 mL of a Trypticase Soy Broth agar medium solution in a soluble state, and each agar medium solution was poured into a petri dish and solidified, to prepare the test plates. Subsequently, 5 μL of above the bacteria fluids for inoculation were stamped on the test plates, and then the test plates were cultured at 37 degrees C. for 3 days.
(§6) The minimum concentration of the cooling agent in which the growth of bacteria could not be confirmed was considered as the MIC (Minimum Inhibitory Concentration).
as §6

The subject of test [2] is Propionibacterium acnes (JCM6473). The test is described as above. Particulars: Cutibacterium acnes, 72 h; strain JCM6473; Trypticase Soy Broth agar, 37 degrees C. for 3 days; read-out: MIC (Minimum Inhibitory Concentration). On the procedure: as §1, §2, §3, §4, §5, §6, §6
Test [3] has as its system Actinomyces viscosus (JCM8352). The test is described as above. Particulars: Actinomyces viscosus, 72 h; strain JCM8352; Trypticase Soy Broth agar, 37 degrees C. for 3 days; read-out: MIC (Minimum Inhibitory Concentration). On the procedure: as §1, §2, §3, §4, §5, §6, §6
For test [4], the system named is Propionibacterium acnes (ATCC6919). The test is described as above. As to conditions: Cutibacterium acnes, ATCC6919, 72 h, strain ATCC6919; Trypticase Soy Broth agar, 37 degrees C. for 3 days; read-out: MIC (Minimum Inhibitory Concentration). As to the method: as §1, §2, §3, §4, §5, §6, §6
Test [5] deals with Bacteroides fragilis (GAI5560). The test is described as above. As to conditions: Bacteroides fragilis, 72 h; strain GAI5560; Trypticase Soy Broth agar, 37 degrees C. for 3 days; read-out: MIC (Minimum Inhibitory Concentration). On the procedure: as §1, §2, §3, §4, §5, §6, §6
Test [6] has as its system Streptococcus mutans (JCM5175). The test is described as above. As to conditions: Streptococcus mutans, 72 h; strain JCM5175; Trypticase Soy Broth agar, 37 degrees C. for 3 days; read-out: MIC (Minimum Inhibitory Concentration). As to the method:
as §1, §2, §3, §4, §5, §6, §6

The test system of test [7] is Bacillus subtilis (NBRC3134). Kind of test: Growth inhibition activity (MIC, agar) against aerobic bacteria. Particulars: Bacillus subtilis; strain NBRC3134; Mueller Hinton Agar, 37 degrees C. overnight; read-out: MIC (Minimum Inhibitory Concentration). On the procedure: as §1
(§7) Furthermore, the following bacteria were also used as other general aerobic bacteria: • Escherichia coli: Escherichia coli (NBRC3972) • Pseudomonas aeruginosa: Pseudomonas aeruginosa (NBRC13275) • Bacteria in intestines: Proteus vulgaris (NBRC3167) • Pneumobacillus: Klebsiella pneumoniae (NBRC13277) • Bacillus subtilis: Bacillus subtilis (NBRC3134)
(§8) The test strains were cultured in the liquid medium which the Bioresource center recommends, and then the test strains were subcultured to a Mueller Hinton Broth (Difco) at 30 degrees C. The grown bacteria were diluted to 10^6 CFU/ml with saline to adjust the bacteria fluids for inoculation.
(§9) Furthermore, in order to examine the growth inhibition activities against the bacteria by the above cooling agents, the concentration of the cooling agents: (3S)-CA20, (3R)-CA20, CA1, CA5, CA15, CA55 or CA MGH was diluted with ethanol to the required level of concentration for the determining the Minimum Inhibitory Concentration to produce the sample liquids.
(§10) Next, 100 μL of each sample liquid was added to 10 mL of a Mueller Hinton Agar (Difco) agar medium solution in a soluble state, and each agar medium solution was poured into a petri dish and solidified to prepare test plates having several concentrations of the sample liquids (several concentrations of the above cooling agents). Subsequently, 5 μL of the above bacteria fluids for inoculation were stamped on the test plates, and then the test plates were cultured at 37 degrees C. overnight.
(§11) In this way, the growth inhibition activities by (3S)-CA20, (3R)-CA20, CA1, CA5, CA15, CA55, CA MGH were examined. The minimum concentration of the cooling agent in which the growth of bacteria could not be confirmed was considered as the MIC (Minimum Inhibitory Concentration).
(§12) The minimum concentration of the cooling agent in which the grown strain could not be confirmed was considered as the MIC (Minimum Inhibitory Concentration).

For test [8], the system named is Klebsiella pneumoniae (NBRC13277). Described as above. Particulars: Klebsiella pneumoniae; strain NBRC13277; Mueller Hinton Agar, 37 degrees C. overnight; read-out: MIC (Minimum Inhibitory Concentration). On the procedure:
as §1, §7, §8, §9, §10, §11, §12

Test [9] has as its system Pseudomonas aeruginosa (NBRC13275). The test is described as above. Particulars: Pseudomonas aeruginosa; strain NBRC13275; Mueller Hinton Agar, 37 degrees C. overnight; read-out: MIC (Minimum Inhibitory Concentration). On the procedure:
as §1, §7, §8, §9, §10, §11, §12

For test [10], the system named is Escherichia coli (NBRC3972). Described as above. Particulars: Escherichia coli; strain NBRC3972; Mueller Hinton Agar, 37 degrees C. overnight; read-out: MIC (Minimum Inhibitory Concentration). On the procedure: as §1, §7, §8, §9, §10, §11, §12
Test [11] has as its system Proteus vulgaris (NBRC3167). The description is as above. As to conditions: Proteus vulgaris; strain NBRC3167; Mueller Hinton Agar, 37 degrees C. overnight; read-out: MIC (Minimum Inhibitory Concentration). On the procedure: as §1, §7, §8, §9, §10, §11, §12
In test [12] the test system is Fusobacterium nucleatum (JCM6328). The experiment in a line: Growth inhibition activity (MIC, agar) against anaerobic bacteria. As to conditions: 72 h, strain JCM6328, Trypticase Soy Broth agar, 37 degrees C. for 3 days, read-out: MIC (Minimum Inhibitory Concentration). As to the method: as §1, §2, §3, §4, §5, §6, §6

`CC(O)CC(=O)OC1CC(C)CCC1C(C)C` [(3S)-CA20, menthyl 3-hydroxybutanoate]: the MIC in test [1] was 100 mg/L (≈ 413 µM); in [2] it was 200 mg/L (≈ 825 µM); in test [3], 100 mg/L (≈ 413 µM); in [4], 200 mg/L (≈ 825 µM); in [5], 100 mg/L (≈ 413 µM); in test [6], 200 mg/L (≈ 825 µM). Moreover, the MIC in [7] is 200 mg/L (≈ 825 µM); in [8] it was 200 mg/L (≈ 825 µM); in test [9] it was greater than 1600 mg/L; in test [10], greater than 1600 mg/L; in test [11], greater than 1600 mg/L.
With `CC1CCC(C(C)C)C(OCC(C)(O)CO)C1` (centres unmarked) [CA1, 2-methyl-3-(menthoxy)propane-1,2-diol], the MIC is 200 mg/L (≈ 818 µM) in [1]; 400 mg/L (≈ 1640 µM) in test [2]; 800 mg/L (≈ 3270 µM) in test [12]; less than 50 mg/L in test [3]; 400 mg/L (≈ 1640 µM) in [4]; 100 mg/L (≈ 409 µM) in test [5]. Besides, the MIC is 800 mg/L (≈ 3270 µM) in [6]; 400 mg/L (≈ 1640 µM) in test [7]; 400 mg/L (≈ 1640 µM) in test [8]; greater than 1600 mg/L in test [9]; greater than 1600 mg/L in [10]; greater than 1600 mg/L in test [11].
Regarding `CC1CCC(C(C)C)C(OCCO)C1` (centres unmarked) [CA5, 2-(menthoxy)ethanol], the MIC was determined as 200 mg/L (≈ 998 µM) in test [1]; 400 mg/L (≈ 2000 µM) in [2]; 400 mg/L (≈ 2000 µM) in [12]; 200 mg/L (≈ 998 µM) in [3]; 400 mg/L (≈ 2000 µM) in test [4]; 200 mg/L (≈ 998 µM) in test [5]. The MIC in [6] was 800 mg/L (≈ 3990 µM); in test [7], 800 mg/L (≈ 3990 µM); in test [8] it was 400 mg/L (≈ 2000 µM); in test [9], greater than 1600 mg/L; in test [10] it was greater than 1600 mg/L; in [11] it was 1600 mg/L (≈ 7990 µM).
On to `CC1CCC(C(C)C)C(OCC(O)CO)C1` (centres unmarked) [CA10, 3-menthoxypropane-1,2-diol, reference compound], for which the MIC in test [1] was 200 mg/L (≈ 868 µM); in [2], 800 mg/L (≈ 3470 µM); in test [12], 800 mg/L (≈ 3470 µM); in [3], less than 50 mg/L; in test [4], 800 mg/L (≈ 3470 µM); in [5], 100 mg/L (≈ 434 µM). For the same compound, the MIC in test [6] is 800 mg/L (≈ 3470 µM); in [7], 800 mg/L (≈ 3470 µM); in test [8], 800 mg/L (≈ 3470 µM); in test [9] it was greater than 1600 mg/L; in test [10], greater than 1600 mg/L; in test [11] it was 1600 mg/L (≈ 6950 µM).
On to `CC1CCC(C(C)C)C(OCCCO)C1` (centres unmarked) [CA15, 3-menthoxypropan-1-ol], for which the MIC worked out at 100 mg/L (≈ 467 µM) in test [1]; 200 mg/L (≈ 933 µM) in [2]; 400 mg/L (≈ 1870 µM) in [12]; 200 mg/L (≈ 933 µM) in [3]; 400 mg/L (≈ 1870 µM) in [4]; 100 mg/L (≈ 467 µM) in test [5]. For the same compound, the MIC was 400 mg/L (≈ 1870 µM) in test [6]; 400 mg/L (≈ 1870 µM) in [7]; 200 mg/L (≈ 933 µM) in test [8]; greater than 1600 mg/L in [9]; greater than 1600 mg/L in test [10]; greater than 1600 mg/L in test [11].
